Where “and” joins values, the source holds several entries; their conditions need not be identical. Equal entries are not always repeated. Toxic doses and inconclusive results are not listed.
Tested on: L1210 leukemia ip in BDF1 mice, survival T/C
Assay: NCI In Vivo Anticancer Drug Screen. Data for tumor model L1210 Leukemia (intraperitoneal) in B6D2F1 (BDF1) mice
Conditions: endpoint: mean survival time, higher = longer survival
Summary of the method: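 Each compound was tested against a transplantable tumor grown in mice. The endpoint was survival, with treated animals benchmarked against vehicle controls as a simple ratio.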

[1] = dose: 100.0 mg/kg/injection, schedule: Q04DX003 (ip), vehicle: saline with Tween-80
[2] = dose: 200.0 mg/kg/injection, schedule: Q04DX003 (ip), vehicle: saline with Tween-80
[3] = dose: 100.0 mg/kg/injection, schedule: Q01DX009 (ip), vehicle: Klucel (hydroxypropylcellulose) (HPC)
[4] = dose: 200.0 mg/kg/injection, schedule: Q01DX009 (ip), vehicle: Klucel (hydroxypropylcellulose) (HPC)
[5] = dose: 400.0 mg/kg/injection, schedule: Q01DX009 (ip), vehicle: Klucel (hydroxypropylcellulose) (HPC)
[6] = dose: 100.0 mg/kg/injection, schedule: Q01DX009 (ip), vehicle: other
[7] = dose: 200.0 mg/kg/injection, schedule: Q01DX009 (ip), vehicle: other
[8] = dose: 400.0 mg/kg/injection, schedule: Q01DX009 (ip), vehicle: other

## C/C=C(/C)C(=O)OCCCCCCCCC
dose: 100.0 mg/kg/injection, schedule: Q04DX002 (ip), vehicle: Klucel (hydroxypropylcellulose) (HPC)
  T/C: 102 % of control
dose: 200.0 mg/kg/injection, schedule: Q04DX002 (ip), vehicle: Klucel (hydroxypropylcellulose) (HPC)
  T/C: 102 % of control
dose: 400.0 mg/kg/injection, schedule: Q04DX002 (ip), vehicle: Klucel (hydroxypropylcellulose) (HPC)
  T/C: 94 % of control

## CCCCCCCCCCCCOC(=N)N1CCCC1
dose: 8.8 mg/kg/injection, schedule: Q01DX Z (ip), vehicle: saline
  T/C: 96 % of control
dose: 13.3 mg/kg/injection, schedule: Q01DX Z (ip), vehicle: saline
  T/C: 102 % of control
dose: 20.0 mg/kg/injection, schedule: Q01DX Z (ip), vehicle: saline
  T/C: 100 % of control

## CC(=O)OC(C)(C)/C=C/C(=O)[C@](C)(O)[C@H]1[C@H](O)C[C@@]2(C)[C@@H]3CC=C4[C@@H](C=C(O)C(=O)C4(C)C)[C@]3(C)C(=O)C[C@]12C
dose: 0.4 mg/kg/injection, schedule: Q01DX Z (ip), vehicle: carboxymethylcellulose (CMC)
  T/C: 94 % of control
dose: 0.8 mg/kg/injection, schedule: Q01DX Z (ip), vehicle: carboxymethylcellulose (CMC)
  T/C: 100 % of control
dose: 1.6 mg/kg/injection, schedule: Q01DX Z (ip), vehicle: carboxymethylcellulose (CMC)
  T/C: 105 % of control
dose: 3.2 mg/kg/injection, schedule: Q01DX Z (ip), vehicle: carboxymethylcellulose (CMC)
  T/C: 100 % of control

## Cc1ccc(C(CO)(CO)OC(CO)(CO)c2ccc(C)c(C)c2)cc1C
dose: 50.0 mg/kg/injection, schedule: Q01DX001 (ip), vehicle: saline
  T/C: 105 % of control
dose: 100.0 mg/kg/injection, schedule: Q01DX001 (ip), vehicle: saline
  T/C: 97 % of control
dose: 200.0 mg/kg/injection, schedule: Q01DX001 (ip), vehicle: saline
  T/C: 105 % of control
dose: 400.0 mg/kg/injection, schedule: Q01DX001 (ip), vehicle: saline
  T/C: 105 % of control

## Cc1c2ccc3ccccc3c2c[n+]2ccccc12
dose: 5.0 mg/kg/injection, schedule: Q01DX009 (ip), vehicle: saline sonified
  T/C: 102 % of control
dose: 7.0 mg/kg/injection, schedule: Q01DX009 (ip), vehicle: saline sonified
  T/C: 116 % of control and 120 % of control
dose: 10.7 mg/kg/injection, schedule: Q01DX009 (ip), vehicle: saline sonified
  T/C: 117 % of control
dose: 11.0 mg/kg/injection, schedule: Q01DX009 (ip), vehicle: saline sonified
  T/C: 120 % of control
dose: 15.0 mg/kg/injection, schedule: Q04DX003 (ip), vehicle: Klucel (hydroxypropylcellulose) (HPC)
  T/C: 108 % of control
dose: 21.0 mg/kg/injection, schedule: Q04DX003 (ip), vehicle: Klucel (hydroxypropylcellulose) (HPC)
  T/C: 107 % of control
dose: 24.0 mg/kg/injection, schedule: Q01DX009 (ip), vehicle: saline sonified
  T/C: 114 % of control
dose: 33.0 mg/kg/injection, schedule: Q04DX003 (ip), vehicle: Klucel (hydroxypropylcellulose) (HPC)
  T/C: 105 % of control
dose: 48.0 mg/kg/injection, schedule: Q04DX003 (ip), vehicle: Klucel (hydroxypropylcellulose) (HPC)
  T/C: 111 % of control

## O=C1CC(c2cccc(S(=O)(=O)F)c2)=NN1c1ccc([N+](=O)[O-])cn1
dose: 100.0 mg/kg/injection, schedule: Q04DX003 (ip), vehicle: Klucel (hydroxypropylcellulose) (HPC)
  T/C: 102 % of control
dose: 200.0 mg/kg/injection, schedule: Q04DX003 (ip), vehicle: Klucel (hydroxypropylcellulose) (HPC)
  T/C: 105 % of control
dose: 400.0 mg/kg/injection, schedule: Q04DX003 (ip), vehicle: Klucel (hydroxypropylcellulose) (HPC)
  T/C: 91 % of control

## COc1ccccc1OCCN1Cc2ccccc2C1
[1]
  T/C: 96 % of control
[2]
  T/C: 92 % of control

## CN(C)c1ccc(/C=C2\C=Cc3ccccc32)cc1Br
[1]
  T/C: 101 % of control

## CCCC1N(C)CCCN1C
[1]
  T/C: 114 % of control
[2]
  T/C: 102 % of control

## CC(C)[CH2][Sn](=[O])[CH2]C(C)C
dose: 6.25 mg/kg/injection, schedule: Q04DX002 (ip), vehicle: saline with Tween-80
  T/C: 108 % of control
dose: 12.5 mg/kg/injection, schedule: Q04DX002 (ip), vehicle: saline with Tween-80
  T/C: 96 % of control

## CCC(C)P(=O)(N1CC1)N1CC1 (configuration not stated)
dose: 2.0 mg/kg/injection, schedule: Q01DX015 (ip), vehicle: carboxymethylcellulose (CMC)
  T/C: 100 % of control
dose: 4.0 mg/kg/injection, schedule: Q01DX015 (ip), vehicle: carboxymethylcellulose (CMC)
  T/C: 103 % of control
dose: 8.0 mg/kg/injection, schedule: Q01DX015 (ip), vehicle: carboxymethylcellulose (CMC)
  T/C: 105 % of control
dose: 16.0 mg/kg/injection, schedule: Q01DX015 (ip), vehicle: carboxymethylcellulose (CMC)
  T/C: 121 % of control
dose: 32.0 mg/kg/injection, schedule: Q01DX015 (ip), vehicle: carboxymethylcellulose (CMC)
  T/C: 183 % of control

## O=[N+]([O-])c1cccc2cncc(Br)c12
dose: 100.0 mg/kg/injection, schedule: Q01DX001 (ip), vehicle: other
  T/C: 95 % of control
dose: 200.0 mg/kg/injection, schedule: Q01DX001 (ip), vehicle: other
  T/C: 106 % of control
dose: 400.0 mg/kg/injection, schedule: Q01DX001 (ip), vehicle: other
  T/C: 104 % of control

## O=C1C2CC3C(CC2C(=O)[N]1[Sn]([c]1ccccc1)([c]1ccccc1)[c]1ccccc1)C1(Cl)C(Cl)=C(Cl)C3(Cl)C1(Cl)Cl (configuration not stated)
dose: 10.0 mg/kg/injection, schedule: Q01DX001 (ip), vehicle: carboxymethylcellulose (CMC)
  T/C: 98 % of control
dose: 20.0 mg/kg/injection, schedule: Q01DX001 (ip), vehicle: carboxymethylcellulose (CMC)
  T/C: 95 % of control
dose: 40.0 mg/kg/injection, schedule: Q01DX001 (ip), vehicle: carboxymethylcellulose (CMC)
  T/C: 101 % of control
dose: 80.0 mg/kg/injection, schedule: Q01DX001 (ip), vehicle: carboxymethylcellulose (CMC)
  T/C: 101 % of control

## CC12CCC(O)(CC1)CC2=O
dose: 75.0 mg/kg/injection, schedule: Q04DX002 (ip), vehicle: saline
  T/C: 95 % of control
dose: 150.0 mg/kg/injection, schedule: Q04DX002 (ip), vehicle: saline
  T/C: 95 % of control
dose: 300.0 mg/kg/injection, schedule: Q04DX002 (ip), vehicle: saline
  T/C: 103 % of control

## CN(C)CN1C(=O)c2ccccc2C1=O
[3]
  T/C: 103 % of control
[4]
  T/C: 100 % of control
[5]
  T/C: 104 % of control

## C=CCc1ccc(OC(=O)Nc2cccc(OC)c2)c(OC)c1
[3]
  T/C: 106 % of control
[4]
  T/C: 98 % of control
[5]
  T/C: 88 % of control

## COc1ccc2c(c1)CCC1C2=CCC2C1C(=O)CCC2(OC)OC (configuration not stated)
dose: 50.0 mg/kg/injection, schedule: Q01DX001 (ip), vehicle: Klucel (hydroxypropylcellulose) (HPC)
  T/C: 98 % of control
dose: 100.0 mg/kg/injection, schedule: Q01DX001 (ip), vehicle: Klucel (hydroxypropylcellulose) (HPC)
  T/C: 101 % of control
dose: 200.0 mg/kg/injection, schedule: Q01DX001 (ip), vehicle: Klucel (hydroxypropylcellulose) (HPC)
  T/C: 96 % of control

## O=[N+]([O-])/C=C/c1cc2ccccc2[nH]1
[6]
  T/C: 96 % of control
[7]
  T/C: 113 % of control
[8]
  T/C: 107 % of control

## CCOC(=O)C(O)C(C#N)c1ccccc1 (configuration not stated)
[6]
  T/C: 94 % of control
dose: 100.0 mg/kg/injection, schedule: Q04DX003 (ip), vehicle: other
  T/C: 118 % of control
[7]
  T/C: 106 % of control
dose: 200.0 mg/kg/injection, schedule: Q04DX003 (ip), vehicle: other
  T/C: 101 % of control
[8]
  T/C: 95 % of control
dose: 400.0 mg/kg/injection, schedule: Q04DX003 (ip), vehicle: other
  T/C: 105 % of control

## COC(=O)CC(C(=O)OC)C(=O)OC
dose: 75.0 mg/kg/injection, schedule: Q01DX001 (ip), vehicle: Klucel (hydroxypropylcellulose) (HPC)
  T/C: 105 % of control
dose: 75.0 mg/kg/injection, schedule: Q01DX009 (ip), vehicle: Klucel (hydroxypropylcellulose) (HPC)
  T/C: 97 % of control
dose: 150.0 mg/kg/injection, schedule: Q01DX001 (ip), vehicle: Klucel (hydroxypropylcellulose) (HPC)
  T/C: 103 % of control
dose: 150.0 mg/kg/injection, schedule: Q01DX009 (ip), vehicle: Klucel (hydroxypropylcellulose) (HPC)
  T/C: 105 % of control
dose: 300.0 mg/kg/injection, schedule: Q01DX001 (ip), vehicle: Klucel (hydroxypropylcellulose) (HPC)
  T/C: 90 % of control
dose: 300.0 mg/kg/injection, schedule: Q01DX009 (ip), vehicle: Klucel (hydroxypropylcellulose) (HPC)
  T/C: 105 % of control

## Cc1cc(Cl)c2cc(Cl)cc(Cl)c2n1
dose: 100.0 mg/kg/injection, schedule: Q01DX009 (ip), vehicle: saline
  T/C: 89 % of control
dose: 100.0 mg/kg/injection, schedule: Q04DX003 (ip), vehicle: saline
  T/C: 91 % of control
dose: 200.0 mg/kg/injection, schedule: Q01DX009 (ip), vehicle: saline
  T/C: 96 % of control
dose: 200.0 mg/kg/injection, schedule: Q04DX003 (ip), vehicle: saline
  T/C: 89 % of control
dose: 400.0 mg/kg/injection, schedule: Q04DX003 (ip), vehicle: saline
  T/C: 94 % of control
